From patent US4578393A, “Dihydroisoquinoline derivatives” (Beecham Group p.l.c., priority 1983, dated 1986)
Where a name gives a salt, the structure may show the parent alone. Read-outs that look alike come from different tables or passages of the source.

Legend:
[1] = system: adjuvant arthritis in the rat; experiment: Adjuvant arthritis test in the rat; format: in vivo; settings: read-out: ACTIVE DOSE
Text: The test is as described by Newbould, Brit. J. Pharmacol., 1963, 21, 127-136. Compounds were active at the doses shown below.

5-Lipoxygenase enzyme = biological target: T1, 5-Lipoxygenase enzyme (Rattus norvegicus, UniProt P12527); experiment: Inhibition of 5-lipoxygenase activity (10,000 g supernatant from RBL-1 cells); format: biochemical; settings: RBL-1 supernatant, 6.3 μm arachidonic acid, 29° C.
T1 construct: 5-Lipoxygenase enzyme was prepared as a 10,000 g supernatant from RBL-1 cells; endogenous in cells; host or cells: RBL-1 cells (10,000 g supernatant)
T1 sequence (P12527 1-673): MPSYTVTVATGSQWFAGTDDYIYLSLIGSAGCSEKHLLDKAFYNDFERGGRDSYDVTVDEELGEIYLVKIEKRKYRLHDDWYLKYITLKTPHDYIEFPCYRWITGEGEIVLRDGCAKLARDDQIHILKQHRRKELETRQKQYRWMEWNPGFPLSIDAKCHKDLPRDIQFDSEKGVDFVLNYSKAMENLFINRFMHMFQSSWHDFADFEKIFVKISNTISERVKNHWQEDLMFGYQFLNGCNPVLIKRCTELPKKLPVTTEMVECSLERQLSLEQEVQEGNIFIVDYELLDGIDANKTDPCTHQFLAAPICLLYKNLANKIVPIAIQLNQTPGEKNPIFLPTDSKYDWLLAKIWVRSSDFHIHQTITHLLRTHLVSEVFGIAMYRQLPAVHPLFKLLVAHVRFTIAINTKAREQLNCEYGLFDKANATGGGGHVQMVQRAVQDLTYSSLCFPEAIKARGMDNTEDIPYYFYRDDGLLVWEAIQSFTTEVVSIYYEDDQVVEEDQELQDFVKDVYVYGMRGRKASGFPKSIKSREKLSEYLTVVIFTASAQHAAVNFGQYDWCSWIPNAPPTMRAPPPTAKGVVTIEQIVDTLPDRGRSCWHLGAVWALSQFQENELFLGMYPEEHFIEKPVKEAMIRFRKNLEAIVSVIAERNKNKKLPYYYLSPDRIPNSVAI
Method: 5-Lipoxygenase enzyme was prepared as a 10,000 g supernatant from RBL-1 cells by the method of Jakschik [Jakschik, B. A., F. F. Sun, L. M. Lee, and M. M. Steinhoff, 1980, Biochem. Biophys. Res. Comm. 95, 103]. The 10,000 g supernatant was diluted with homogenization buffer to the equivalent of 1.5-2.5×10^7 cells. ml^-1 and made 2 mM with respect to CaCl2. Aliquots of 0.5 ml were then dispensed into tubes, and incubated at 29° C. with 5 μl ethanol or compound in ethanol at the desired concentration for 2 min. Then [1-^14 C] arachidonic acid was added in buffer to give a final concentration of 6.3 μm and 0.2 μCi per incubation, and the reaction continued at 29° C. for 2 min. The reaction was terminated by adding 1 ml of acetone and cooling on ice, 0.5 ml of ice-cold saline and 10 μl of 2N formic acid were added, and the mixture was extracted with 2×2 ml of chloroform. The extract was stored under N2 at -20° C. until analysis by chromatography. Activity was measured as the percentage of total radioactivity found in 5-HETE and 5,12-diHETE, and inhibition calculated as the decrease in formation of the sum of these two species in compound-treated incubates relative to control incubates.
(P values as assessed by the students `t` test).

inhibition of 5-lipoxygenase (formation of 5-HETE and 5,12-diHETE) (5-Lipoxygenase enzyme; concentration of 5 μm) [%] | inhibition of 5-lipoxygenase (formation of 5-HETE and 5,12-diHETE) (5-Lipoxygenase enzyme; concentration of 50 μm) [%] | Structure (SMILES) | minimal effective dose ([1]; ip) [mg/kg] | minimal effective dose ([1]; po) [mg/kg]
37 | 92 | Br.CN(C)C1=NC(c2ccc(Cl)cc2)c2cc(O)c(O)cc2C1 (stereo not shown) [Example 30, 1-(4-Chlorophenyl)-6,7-dihydroxy-3-dimethylamino-1,4-dihydroisoquinoline hydrobromide] | 12.5 | 
 |  | Br.CN(C)C1=NC(c2ccc(Cl)cc2)c2ccc(O)cc2C1 (stereo not shown) [Example 32, 1-(4-Chlorophenyl)-3-dimethylamino-6-hydroxy-1,4-dihydroisoquinoline hydrobromide] | 25 | 
 |  | CN(C)C1=NC(c2ccc(Cl)cc2)c2ccccc2C1.Cl.O (stereo not shown) [Example 2, 1-(4-Chlorophenyl)-3-dimethylamino-1,4-dihydroisoquinoline hydrochloride hydrate] |  | 12.5
15 | 50 | CN(C)C1=NC(c2ccccc2Cl)c2ccccc2C1.Cl (stereo not shown) [Example 1, 1-(2-Chlorophenyl)-3-dimethylamino-1,4-dihydroisoquinoline hydrochloride] |  | 25
 |  | CN(C)C1=NC(c2ccccc2F)c2ccccc2C1 (stereo not shown) [Example 10, 1-(2-Fluorophenyl)-1,4-dihydro-3-dimethylaminoisoquinoline hydrochloride] |  | 25
 |  | Br.CN(C)C1=NC(c2ccc(Cl)cc2)c2c(O)cccc2C1.O (stereo not shown) [Example 31, 1-(4-Chlorophenyl)-3-dimethylamino-8-hydroxy-1,4-dihydroisoquinoline hydrobromide hydrate] | 20 | 
